Consider eight molecules from patent US5114936A, “6,7-dihydro-3-phenyl-1,2-benzisoxazol-4(5H)-ones and -ols, compositions and pharmaceutical use” (Hoechst-Roussel Pharmaceuticals Incorporated, priority 1991, dated 1992).

SMILES strings stand for the structures. Where a name gives a salt, the structure may show the parent alone.

One experiment concerns apomorphine climbing. The experiment is described as follows: Climbing Mice Assay (antagonism of apomorphine-induced climbing). Conditions: Mus musculus; ip; apomorphine 1.5 mg/kg subcutaneously. The class given is in vivo, mice (CK-1 male mice). The procedure: Antipsychotic activity is determined in the Climbing Mice Assay by a method similar to that described by P. Protais, et al., Psychopharmacol., 50, 1 (1976) and B. Costall, Eur. J. Pharmacol., 50, 39 (1978).
The subject CK-1 male mice (23-27 grams) are group-housed under standard laboratory conditions. The mice are individually placed in wire mesh stick cages (4"×4"×10") and are allowed one hour for adaptation and exploration of the new environment. Then apomorphine is injected subcutaneously at 1.5 mg/kg, a dose causing climbing in all subjects for 30 minutes.
Compounds to be tested for antipsychotic activity are injected intraperitoneally or given orally at various time intervals, e.g. 30 minutes, 60 minutes, etc. prior to the apomorphine challenge at a screening dose of 10-60 mg/kg.
For evaluation of climbing, 3 readings are taken at 10, 20 and 30 minutes after apomorphine administration according to the following scale:
4 paws on bottom (no climbing)
2 paws on the wall (rearing)
4 paws on the wall (full climb)
Mice consistently climbing before the injection of apomorphine will be discarded.
With full-developed apomorphine climbing, the animals are hanging on to the cage walls, rather motionless, over longer periods of time. By contrast, climbs due to mere motor stimulation usually only last a few seconds.
The climbing scores are individually totaled (maximal score: 6 per mouse over 3 readings) and the total score of the control group (vehicle intraperitoneally-apomorphine subcutaneously) is set to 100%. ED50 values with 95% confidence limits, calculated by a linear regression analysis, of some of the compounds of the instant invention as well as a standard antipsychotic agent are presented in Table I.
For the molecule `O=C(c1ccc(F)cc1)C1CCN(CCCC2CCc3onc(-c4ccc(F)cc4)c3C2=O)CC1` (stereo not drawn) [Example 20, 6,7-Dihydro-5-[3-(4-(4-fluorobenzoyl)-1-piperidinyl)-propyl]-3-(4-fluorophenyl)-1,2-benzisoxazol-4(5H)-one hydrochloride], the ED50 (usually the dose at which the effect has come halfway, by size or by number of responders) was found to be 6.2 mg/kg.
`Cl.O=C(c1ccc(F)cc1)C1CCN(CCCC2CCc3onc(-c4ccccc4F)c3C2=O)CC1` (stereo not drawn) [Example 19, 6,7-Dihydro-5-[3-(4-(4-fluorobenzoyl)-1-piperidinyl)-propyl]-3-(2-fluorophenyl)-1,2-benzisoxazol-4(5H)-one hydrochloride] showed an ED50 of 2.9 mg/kg.
Same read-out and setting: the result for `O=C(c1ccc(F)cc1)C1CCN(CCCC2CCc3onc(-c4cccc(F)c4)c3C2=O)CC1` (stereo not drawn) [Example 26, 6,7-Dihydro-5-[3-(4-(4-fluorobenzoyl)-1-piperidinyl)-propyl]-3-(3-fluorophenyl)-1,2-benzisoxazol-4(5H)-one hydrochloride] reads 5.7 mg/kg; that for `COc1ccccc1N1CCN(CCCC2CCc3onc(-c4ccccc4)c3C2=O)CC1` (stereo not drawn) [Example 14, 6,7-Dihydro-5-[3-(4-(2-methoxyphenyl)-1-piperazinyl)-propyl]-3-phenyl-1,2-benzisoxazol-4(5H)-one dihydrochloride], 15 mg/kg; that for `Cl.O=C1c2c(-c3ccccc3)noc2CCC1CCCN1CCC(c2ccc(F)cc2)CC1` (stereo not drawn) [6,7-dihydro-5-[3-(4-(4-fluorophenyl)-1-piperidinyl)-propyl]-3-phenyl-1,2-benzisoxazol-4(5H)-one hydrochloride], 6.36 mg/kg.
The same measure, in the same setting: the result for `CN1CCN(C2=Nc3cc(Cl)ccc3Nc3ccccc32)CC1` [clozapine, reference compound] reads 9 mg/kg.

For another experiment, the system named is phenyl-p-quinone writhing. In words: phenyl-p-quinone writhing assay (analgesia). The class given is in vivo, mice. Conditions: Mus musculus, sc; s.c; read-out: ED50 Inhibition of Writhing. An excerpt: Exptl. Biol. Med. 95, 729 (1957)]
In general terms: Writhing tests count abdominal constrictions after an irritant is injected.
On to `COc1ccccc1N1CCN(CCCC2CCc3onc(-c4ccccc4)c3C2=O)CC1` (stereo not drawn) [Example 14, 6,7-Dihydro-5-[3-(4-(2-methoxyphenyl)-1-piperazinyl)-propyl]-3-phenyl-1,2-benzisoxazol-4(5H)-one dihydrochloride], for which the ED50 was 5.18 mg/kg.
Still for that read-out and setting: the result for `CCC(=O)O[C@](Cc1ccccc1)(c1ccccc1)[C@H](C)CN(C)C` [propoxyphene, reference compound] reads 3.9 mg/kg; that for `O=C(c1ccc(F)cc1)C1CCN(CCCC2CCc3onc(-c4ccccc4)c3C2=O)CC1` (stereo not drawn) [Example 15, 6,7-Dihydro-5-[3-(4-(4-fluorobenzoyl)-1-piperidinyl)-propyl]-3-phenyl-1,2-benzisoxazol-4(5H)-one hydrochloride], 3.99 mg/kg.
